# Test results published in patent publication US8476064B2, “Inhibition assay method and device for detection of antibiotics” (Charm Sciences, Inc., priority 2006, dated 2013).
# How the values were obtained:
# B.st. spores [1] = assay: Single service kidney swab microbial growth inhibition test, culture of Example 1, with or without beta-lactam receptor; assay type: cell-based, Bacillus (Geobacillus) Stearothermophilus; conditions: for test result With receptor: with 1 U receptor
# Experimental: A Bromocresol purple (BCP)/Tris Solution was prepared by combining 25 mL of a Trizma Base solution (TBS), the solution including 2.5 grams Trizma Base in 100 mL of reverse osmosis/deionized water (RO/DI Water), with 100 milligrams of BCP and mixing well. The media was prepared by dissolving 5 grams glucose and 1 gram Mueller Hinton Broth (Mueller Hinton broth includes, in purified filtered water, 2 grams per liter (g/L) beef extract, 17.5 g/L casein hydrolysate acid and 1.5 g/L starch, pH 7.3 at 25 degrees C) into 100 mL RO/DI Water. Then a 0.01 mg/mL solution of trimethoprim in RO/DI Water was prepared and 1.2 mL was added to the media. Next 20 mL of BCP/Tris (sterile filtered through 0.45 micron filter) was added to the media.
# (§1) Agar was prepared by combining 0.3 grams Difco Bacto-Agar (Item #0140-01), 0.225 NaCl and 17.485 RO/DI Water. The mixture was heated to 95° C. and then removed from the heat and allowed to cool to 75° C. Next 6 mL of media (prepared as described above with BCP/Tris) was added to the agar and mixed for 5 minutes. The mixture was cooled to 57° C. and 1 mL spore solution (concentration of 1 billion cfu/mL) was added and mixed together for 5 minutes. 0.200 mL was dispensed into the bottom of a vial 4.
# The dispensed vial 4 was prepared as described in example 1. An extractant was prepared by adding 4.8 grams of 47.2% Trizma Base and 52.5% Potassium Phosphate Monobasic to 1000 mL RO/DI Water (pH should be 7.5+/−0.10). The extractant was sealed within the niblet 5 and the niblet was added to the vial 4. The vial 4 was heat sealed with foil.
# The single service kidney swab procedure was run by first making a 3 inch incision into kidney. The swab 1 was then withdrawn from the test unit, the test unit in the form of a POCKETSWAB, by gently pulling and twisting the handle 2 out of the test unit body 7. The swab 1 was then inserted into the incision of the kidney and allowed to sit for 15 minutes to allow full absorption of liquid into the swab 1. The swab 1 was reinserted by gently pushing down and twisting to engage the threads 6 and screwing the handle down slowly about halfway. The swab tip 3 punctured the seals 12, 13 & 14 immersing the swab tip 3 into the extractant within the niblet 5 where it sat for 2 minutes. The swab 1 was then screwed down all the way. After shaking and tapping the vial 4 to get residual liquid into the bottom of the vial 4 and in contact with the culture 15, we placed the vial 4 into a heat block set at 67° C. and incubated for 2.5 hours (if urine is tested instead of kidney, incubate for 4 hours).
# Culture is prepared as in Example 1. Prior to dispensing 200 microliters into the vial 4, antibiotic binder is prepared, in this example an antibiotic binder from the cell wall of B.st., also known as receptor. Varying amounts of inhibitory receptor units are mixed into the culture. Receptor is defined as protein removed from cellular membrane of B.st. A receptor unit (1 U) is the amount of receptor that will, in the test, reverse the culture growth inhibition of 12.5 ppb of penicillin G.
# Results in Table 1 are from tests using the culture described in Example 1 and with the addition of receptor added into rinse buffer (rinse buffer composition is 4.8 grams of 47.2% Trizma Base and 52.5% Potassium Phosphate Monobasic to 1000 mL RO/DI Water) at 0, 0.3 units (U), 1.0 U, 2.0 U, 5.0 Upper test. Sample contained the following amounts of penicillin G: 0, 5 parts per billion (ppb), 10 ppb, 12.5 ppb, 25 ppb and 50 ppb. As shown, 1.0 U was able to reverse the result of a 12.5 ppb penicillin G sample. Results are either positive (+) or negative (−).
# Results are either positive (+), negative (−) or borderline between positive and negative (+/−). Abbreviations are penicillin G (PenG); sulfamethazine (SMZ); sulfadimethoxine (SDM); tylosin (TY); gentamicin (G); oxytetracycline (OT). […]
# B.st. spores [2] = assay: Antibiotic detection test in spiked milk, borate/succinate culture of Example 6 (Table 4); assay type: cell-based, Bacillus (Geobacillus) Stearothermophilus; parameters: key to Color 1 / Color 2: Color result 1 and 2 is a negative result; Color result 1 and 2 is a negative result; 3 is a borderline result; 4 and 5 is a positive result; 4 and 5 is a positive result; conditions: for % Pos (Color 2) / Color 2: after 16 hours at room temperature; for % Pos (Color 1) / Color 1: immediately after test completion
# Experimental: BCP/Borate/Succinate Solution was prepared by adding 3.8 grams of Borate and 6 grams Succinate to 100 mL of reverse osmosis/deionized water (RO/DI Water) in 125 mL flask. 50 milligrams of BCP was added to a 50 mL conical tube and 5 mL of Borate/Succinate solution was added to the 50 milligrams BCP and mixed.
# To prepare media 5 grams glucose and 1 gram Mueller Hinton Broth was dissolved in 100 mL RO/DI Water. 1.2 mL of a 0.01 mg/mL solution of trimethoprim in RO/DI Water was prepared and added to the media. A 20 mL of BCP/Borate/Succinate was added to the media and the media was sterile filtered through a 0.45 micron filter and then cooled to 4 degrees C.
# as §1, with “each of the vials.” for “a vial 4.”
# In test operation 200 microliters of various milk sample, spiked with known concentrations of antibiotics, were pipetted into test vials and incubated for the prescribed time (in this test 2 hours 10 minutes) and prescribed temperature (64 degrees C.+/−2 degrees C.). Incubation was in the Charm I Inctronic incubator. Results were recorded immediately after test completion (Color 1) and after being left at room temperature for 16 hours (Color 2). Results listed are in parts per billion (ppb). 4 samples were run at each concentrations except for raw negative milk (16 samples) and 3 ppb pen G (2 samples) and amoxicillin (2 samples). Abbreviations are penicillin G (PenG); sulfamethazine (SMZ); sulfadimethoxine (SDM); tylosin (TY); gentamicin (G); oxytetracycline (OT); pirlimycin (Pirl); amoxicillin (Amox); ampicillin (Amp); cloxacillin (Clox); ceftiofur sodium (Ceft); cephaprin (Ceph); tilmicosin (Til); sulfadoxine (SDN); neomycin (Neo). Color result 1 and 2 is a negative result, 3 is a borderline result and 4 and 5 is a positive result.
# [3] = drug concentration 250 (unit not given)
# [4] = drug concentration 500 (unit not given)
# [5] = drug concentration 750 (unit not given)
smiles,measurement,setting,value
"CN(C)[C@@H]1C(O)=C(C(N)=O)C(=O)[C@@]2(O)C(O)=C3C(=O)c4c(O)cccc4[C@@](C)(O)[C@H]3[C@H](O)[C@@H]12 [OT, oxytetracycline]",test result w/out receptor,B.st. spores [1]; [3],+
same,test result With receptor,B.st. spores [1]; [3],+
same,test result w/out receptor,B.st. spores [1]; [4],+
same,test result With receptor,B.st. spores [1]; [4],+
same,test result w/out receptor,B.st. spores [1]; [5],+
same,test result With receptor,B.st. spores [1]; [5],+
same,% Pos (Color 2),B.st. spores [2]; milk spiked at 200 ppb,0%
same,Color 2,B.st. spores [2]; milk spiked at 200 ppb,2
same,% Pos (Color 1),B.st. spores [2]; milk spiked at 200 ppb,0%
same,Color 1,B.st. spores [2]; milk spiked at 200 ppb,2
same,% Pos (Color 2),B.st. spores [2]; milk spiked at 300 ppb,100%
same,Color 2,B.st. spores [2]; milk spiked at 300 ppb,4
same,% Pos (Color 1),B.st. spores [2]; milk spiked at 300 ppb,100%
same,Color 1,B.st. spores [2]; milk spiked at 300 ppb,5
"CC1(C)S[C@@H]2[C@H](NC(=O)Cc3ccccc3)C(=O)N2[C@H]1C(=O)O [PenG, penicillin G]",test result,"B.st. spores [1]; 12.5 ppb penicillin G, Control - no receptor",+
same,test result,"B.st. spores [1]; 12.5 ppb penicillin G, Receptor added to buffer",−
same,test result,"B.st. spores [1]; 12.5 ppb penicillin G, Receptor added to culture surface",−
same,test result,"B.st. spores [1]; 12.5 ppb penicillin G, Receptor mixed in culture",−
same,test result,"B.st. spores [1]; 50 ppb penicillin G, Control - no receptor",+
same,test result,"B.st. spores [1]; 50 ppb penicillin G, Receptor added dried on swab",+
same,test result,"B.st. spores [1]; 50 ppb penicillin G, Receptor added to buffer",+
same,test result,"B.st. spores [1]; 50 ppb penicillin G, Receptor added to culture surface",+
same,test sensitivity to penicillin G,B.st. spores [1]; beta-lactam receptor 0.3 units to 5.0 units added to the top of the culture,reduced by varying amounts
same,test result w/out receptor,B.st. spores [1]; drug 12.5 ppb,+
same,test result With receptor,B.st. spores [1]; drug 12.5 ppb,−
same,test result w/out receptor,B.st. spores [1]; drug 25 ppb,+
same,test result With receptor,B.st. spores [1]; drug 25 ppb,+
same,test result,"B.st. spores [1]; penicillin G 5 ppb in sample, receptor 0 U per test in rinse buffer",+
same,test result,"B.st. spores [1]; penicillin G 5 ppb in sample, receptor 0.3 U per test in rinse buffer",−
same,test result,"B.st. spores [1]; penicillin G 5 ppb in sample, receptor 1.0 U per test in rinse buffer",−
same,test result,"B.st. spores [1]; penicillin G 5 ppb in sample, receptor 2.0 U per test in rinse buffer",−
same,test result,"B.st. spores [1]; penicillin G 5 ppb in sample, receptor 5.0 U per test in rinse buffer",−
same,test result,"B.st. spores [1]; penicillin G 10 ppb in sample, receptor 0 U per test in rinse buffer",+
same,test result,"B.st. spores [1]; penicillin G 10 ppb in sample, receptor 0.3 U per test in rinse buffer",−
same,test result,"B.st. spores [1]; penicillin G 10 ppb in sample, receptor 1.0 U per test in rinse buffer",−
same,test result,"B.st. spores [1]; penicillin G 10 ppb in sample, receptor 2.0 U per test in rinse buffer",−
same,test result,"B.st. spores [1]; penicillin G 10 ppb in sample, receptor 5.0 U per test in rinse buffer",−
same,test result,"B.st. spores [1]; penicillin G 12.5 ppb in sample, receptor 0 U per test in rinse buffer",+
same,test result,"B.st. spores [1]; penicillin G 12.5 ppb in sample, receptor 0.3 U per test in rinse buffer",+
same,test result,"B.st. spores [1]; penicillin G 12.5 ppb in sample, receptor 1.0 U per test in rinse buffer",−
same,test result,"B.st. spores [1]; penicillin G 12.5 ppb in sample, receptor 2.0 U per test in rinse buffer",−
same,test result,"B.st. spores [1]; penicillin G 12.5 ppb in sample, receptor 5.0 U per test in rinse buffer",−
same,test result,"B.st. spores [1]; penicillin G 25 ppb in sample, receptor 0 U per test in rinse buffer",+
same,test result,"B.st. spores [1]; penicillin G 25 ppb in sample, receptor 0.3 U per test in rinse buffer",+
same,test result,"B.st. spores [1]; penicillin G 25 ppb in sample, receptor 1.0 U per test in rinse buffer",+
same,test result,"B.st. spores [1]; penicillin G 25 ppb in sample, receptor 2.0 U per test in rinse buffer",+
same,test result,"B.st. spores [1]; penicillin G 25 ppb in sample, receptor 5.0 U per test in rinse buffer",+
same,test result,"B.st. spores [1]; penicillin G 50 ppb in sample, receptor 0 U per test in rinse buffer",+
same,test result,"B.st. spores [1]; penicillin G 50 ppb in sample, receptor 0.3 U per test in rinse buffer",+
same,test result,"B.st. spores [1]; penicillin G 50 ppb in sample, receptor 1.0 U per test in rinse buffer",+
same,test result,"B.st. spores [1]; penicillin G 50 ppb in sample, receptor 2.0 U per test in rinse buffer",+
same,test result,"B.st. spores [1]; penicillin G 50 ppb in sample, receptor 5.0 U per test in rinse buffer",+
same,% Pos (Color 2),B.st. spores [2]; milk spiked at 3 ppb,100%
same,Color 2,B.st. spores [2]; milk spiked at 3 ppb,5
same,% Pos (Color 1),B.st. spores [2]; milk spiked at 3 ppb,100%
same,Color 1,B.st. spores [2]; milk spiked at 3 ppb,5
same,% Pos (Color 2),B.st. spores [2]; milk spiked at 4 ppb,100%
same,Color 2,B.st. spores [2]; milk spiked at 4 ppb,5
same,% Pos (Color 1),B.st. spores [2]; milk spiked at 4 ppb,100%
same,Color 1,B.st. spores [2]; milk spiked at 4 ppb,5
"COc1cc(NS(=O)(=O)c2ccc(N)cc2)nc(OC)n1 [SDM, sulfadimethoxine]",test result w/out receptor,B.st. spores [1]; drug 50 ppb,+/−
same,test result With receptor,B.st. spores [1]; drug 50 ppb,+/−
same,test result w/out receptor,B.st. spores [1]; drug 100 ppb,+/−
same,test result With receptor,B.st. spores [1]; drug 100 ppb,+/−
same,test result w/out receptor,B.st. spores [1]; drug 200 ppb,+
same,test result With receptor,B.st. spores [1]; drug 200 ppb,+
same,% Pos (Color 2),B.st. spores [2]; milk spiked at 25 ppb,100%
same,Color 2,B.st. spores [2]; milk spiked at 25 ppb,5
same,% Pos (Color 1),B.st. spores [2]; milk spiked at 25 ppb,100%
same,Color 1,B.st. spores [2]; milk spiked at 25 ppb,4
same,% Pos (Color 2),B.st. spores [2]; milk spiked at 50 ppb,100%
same,Color 2,B.st. spores [2]; milk spiked at 50 ppb,5
same,% Pos (Color 1),B.st. spores [2]; milk spiked at 50 ppb,100%
same,Color 1,B.st. spores [2]; milk spiked at 50 ppb,5
"Cc1cc(C)nc(NS(=O)(=O)c2ccc(N)cc2)n1 [SMZ, sulfamethazine]",test result w/out receptor,B.st. spores [1]; drug 50 ppb,−
same,test result With receptor,B.st. spores [1]; drug 50 ppb,−
same,test result w/out receptor,B.st. spores [1]; drug 100 ppb,+/−
same,test result With receptor,B.st. spores [1]; drug 100 ppb,+/−
same,test result w/out receptor,B.st. spores [1]; drug 200 ppb,+/−
same,test result With receptor,B.st. spores [1]; drug 200 ppb,+/−
same,% Pos (Color 2),B.st. spores [2]; milk spiked at 100 ppb,100%
same,Color 2,B.st. spores [2]; milk spiked at 100 ppb,5
same,% Pos (Color 1),B.st. spores [2]; milk spiked at 100 ppb,100%
same,Color 1,B.st. spores [2]; milk spiked at 100 ppb,5
same,% Pos (Color 2),B.st. spores [2]; milk spiked at 200 ppb,100%
same,Color 2,B.st. spores [2]; milk spiked at 200 ppb,4
same,% Pos (Color 1),B.st. spores [2]; milk spiked at 200 ppb,100%
same,Color 1,B.st. spores [2]; milk spiked at 200 ppb,5
